From patent US8119681B2, “2-[1-phenyl-5-hydroxy or methoxy-4alpha-methyl-hexahydrocyclopenta [ƒ]indazole-5-YL]ethyl phenyl derivatives as glucocorticoid receptor ligands” (Merck Sharp & Dohme Corp., priority 2006, dated 2012)

How the values were obtained:
human GR [1] = biological target: T1, human GR (Homo sapiens, UniProt P04150); assay: Trans-Activation Modulation of Glucocorticoid Receptor (GRAMMER), MMTV-LUC reporter gene; format: cell-based; design: endogenous in cells; details: for Emax: A549; for EC50: A549 cells, IP = inflection point
T1 sequence (P04150 1-777): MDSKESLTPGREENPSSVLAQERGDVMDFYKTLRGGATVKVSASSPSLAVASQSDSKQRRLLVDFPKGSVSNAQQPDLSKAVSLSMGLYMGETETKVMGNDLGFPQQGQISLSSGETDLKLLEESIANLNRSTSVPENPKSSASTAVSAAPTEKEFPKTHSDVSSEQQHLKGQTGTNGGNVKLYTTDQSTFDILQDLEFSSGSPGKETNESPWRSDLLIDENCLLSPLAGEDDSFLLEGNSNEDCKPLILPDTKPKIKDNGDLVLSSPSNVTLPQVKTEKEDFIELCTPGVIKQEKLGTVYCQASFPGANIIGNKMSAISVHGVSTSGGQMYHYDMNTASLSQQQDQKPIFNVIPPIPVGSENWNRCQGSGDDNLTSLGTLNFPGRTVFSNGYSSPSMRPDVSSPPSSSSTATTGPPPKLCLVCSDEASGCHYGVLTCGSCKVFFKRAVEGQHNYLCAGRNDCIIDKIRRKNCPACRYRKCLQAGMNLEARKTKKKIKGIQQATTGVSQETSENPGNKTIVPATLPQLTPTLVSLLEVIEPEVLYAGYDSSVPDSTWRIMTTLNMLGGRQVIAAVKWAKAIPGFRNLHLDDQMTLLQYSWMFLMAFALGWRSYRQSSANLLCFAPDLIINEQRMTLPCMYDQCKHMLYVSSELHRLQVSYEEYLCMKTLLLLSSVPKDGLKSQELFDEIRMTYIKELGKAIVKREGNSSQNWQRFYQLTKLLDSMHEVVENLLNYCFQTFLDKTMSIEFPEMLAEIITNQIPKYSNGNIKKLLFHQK
Excerpt: Trans-Activation Modulation of Glucocorticoid Receptor (GRAMMER)
This assay assesses the ability of test compounds to control transcription from the MMTV-LUC reporter gene in lung adenocarcinoma A549 cells or HeLa cells, a human […] cell line that naturally expresses the human GR. The assay measures induction of a modified MMTV LTR/promoter linked to the LUC reporter gene.
The routine transient assay consists of plating 7,000-25,000 cells/well of a white, clear-bottom 96-well plate. Alternatively, 384-well plates can be used at a cell concentration of 10,000/well. The media that the cells are plated in is “exponential growth medium” which consists of phenol red-free RPMI1640 containing 10% FBS, 4 mM L-glutamine, 20 mM HEPES, 10 ug/mL human insulin, and 20 ug/mL gentamicin. Incubator conditions are 37° C. and 5% CO2. The transfection is done in batch mode. The cells are trypsinized and counted to the right cell number in the proper amount of fresh media. It is then gently mixed with the FuGene6/DNA mix and plated onto the 96 or 384-well plate, all the wells receive 100 uL or 40 uL, respectively, of medium+lipid/DNA complex then incubated 37° C. overnight. The transfection cocktail consists of serum-free OptiMEM, FuGene6 reagent and DNA. The manufacturer's (Roche Biochemical) protocol for cocktail setup is as follows: The lipid to DNA ratio is approximately 2.5:1 and the incubation time is 20 min at room temperature. Sixteen to 24 hours after transfection, the cells are treated with dexamethasone to a final concentration of 10 nM as well as the compound of interest, such that final DMSO (vehicle) concentration is equal to or less than 1%. Each plate also contains samples that are treated with 10 nM dexamethasone alone, which is used as the 100% activity control. The cells are exposed to the compounds for 24 hours. After 24 hours, the cells are lysed by a Promega cell culture lysis buffer for approximately 30 min and then the luciferase activity in the extracts is assayed in the 96-well format luminometer. In 384-well format, Steady-Glo (Promega) or Steady-Lite (PerkinElmer) can be used by adding an equal volume of reagent to the media present in each well. Activity induced by 10 nM dexamethasone alone is set at 100% activity. Antagonist activity is calculated by determining the decrease in dexamethasone-induced activity in response to compound treatment relative to samples that were treated with dexamethasone alone. […] This transactivation assay can be performed in an agonist and antagonist mode to identify these different activities. […]

human GR [2] = biological target: T1, human GR; assay: Transrepression Assay (GITAR), TNFα-β-lactamase reporter gene in U937 cells; format: cell-based; design: U937 cells contain an endogenous glucocorticoid receptor (GR); endogenous in cells; host or cells: U937 cells stably transfected with the TNF-α promoter/β-lactamase reporter only; details: for EC50: IP = inflection point; for GITAR > GRAMM % SEP: separation of GITAR Emax over GRAMMER Emax; for Emax: U-937
Procedure, shortened: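 Reporter readout used CCF2-AM loading for 70–90 min at room temperature after overnight (~18 h, 37 °C) PMA (5 ng/ml final) and LPS (100 ng/ml final) stimulation of compound-treated (30–45 min) TNFα-β-lactamase U937 cells expressing native GR. Activity was normalised to 100 nM dexamethasone repression.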

[3] = read-out: Transactivation A549 Cells GRAMMER Emax (%)
[4] = Table 1, read-out: Transactivation A549 Cells GRAMMER IP
[5] = Table 1, U937 cells, read-out: Transrepression U937 Cells GITAR IP
[6] = 100 nM dexamethasone = 100% activity, read-out: maximal activity in the transrepression assay
[7] = Table 1, U937 cells, activity repressed by 100 nM dexamethasone = 100%, read-out: Transrepression U937 Cells GITAR Emax (%)
[8] = read-out: Transactiviation A549 Cells GRAMMER Emax (%)
[9] = Table 2, read-out: Transactiviation A549 Cells GRAMMER IP
[10] = Table 2, U937 cells, read-out: Transactiviation U937 Cells GITAR IP
[11] = Table 2, U937 cells, activity repressed by 100 nM dexamethasone = 100%, read-out: Transactiviation U937 Cells GITAR Emax (%)

| SMILES | Emax (human GR [1]; [3]) [%] | EC50 (human GR [1]; [4]) [nM] | EC50 (human GR [2]; [5]) [nM] | GITAR > GRAMM % SEP (human GR [2]; Table 1) [%] | Emax (human GR [2]; [6]) [%] | Emax (human GR [2]; [7]) [%] | Emax (human GR [1]; [8]) [%] | EC50 (human GR [1]; [9]) [nM] | EC50 (human GR [2]; [10]) [nM] | GITAR > GRAMM % SEP (human GR [2]; Table 2) [%] | Emax (human GR [2]; [11]) [%] |
| --- | --- | --- | --- | --- | --- | --- | --- | --- | --- | --- | --- |
| CC(CNC(=O)c1c(F)cccc1CC[C@]1(O)CCC2=Cc3c(cnn3-c3ccc(F)cc3)C[C@@]21C)C(F)(F)F (stereo partly drawn) [Example 38, 2-fluoro-6-{2-[(4αS,5R)-1-(4-fluorophenyl)-5-hydroxy-4α-methyl-1,4,4α,5,6,7-hexahydrocyclopenta[f]indazol-5-yl]ethyl}-N-(3,3,3-trifluoro-2-methylpropyl)benzamide] | 15 | 91 | 152 | 44 | 5 to 100 | 58 | – | – | – | – | – |
| C[C@]12Cc3cnn(-c4ccc(F)cc4)c3C=C1CC[C@@]2(O)CCc1ccccc1Cl [Example 40 WO 2004/075840 A2, reference compound] | – | – | – | – | – | – | 98 | 162 | 212 | −7 | 91 |
| C[C@]12Cc3cnn(-c4ccc(F)cc4)c3C=C1CC[C@@]2(O)CCc1ccccc1C(=O)N1CCC1 [Example 40, (4αS,5R)-5-{2-[2-(azetidin-1-ylcarbonyl)phenyl]ethyl}-1-(4-fluorophenyl)-4α-methyl-1,4,4α,5,6,7-hexahydrocyclopenta[f]indazol-5-ol] | 46 | 231 | 246 | 17 | 5 to 100 | 64 | – | – | – | – | – |
| C[C@]12Cc3cnn(-c4ccc(F)cc4)c3C=C1CCC[C@@]2(O)CCc1ccccc1Cl [Example 41 WO 2004/075840 A2, reference compound] | – | – | – | – | – | – | 92 | 123 | 270 | −3 | 88 |
| COC(=O)C(C)(C)NC(=O)c1c(F)cccc1CC[C@]1(O)CCC2=Cc3c(cnn3-c3ccc(F)cc3)C[C@@]21C [Example 41, methyl N-(2-fluoro-6-{2-[(4αS,5R)-1-(4-fluorophenyl)-5-hydroxy-4α-methyl-1,4,4α,5,6,7-hexahydrocyclopenta[f]indazol-5-yl]ethyl}benzoyl)-2-methylalaninate] | 18 | 46 | 115 | 44 | 5 to 100 | 62 | – | – | – | – | – |
| C[C@]12Cc3cnn(-c4ccccc4)c3C=C1CC[C@@]2(O)CCc1ccccc1C(=O)NC1CC1 [Example 42, N-cyclopropyl-2-{2-[(4αS,5R)-5-hydroxy-4α-methyl-1-phenyl-1,4,4α,5,6,7-hexahydrocyclopenta[f]indazol-5-yl]ethyl}benzamide] | 51 | 74 | 122 | 13 | 5 to 100 | 64 | – | – | – | – | – |
| C[C@]12Cc3cnn(-c4ccccc4)c3C=C1CC[C@@]2(O)CCc1ccccc1C(N)=O [Example 43, 2-{2-[(4αS,5R)-5-hydroxy-4α-methyl-1-phenyl-1,4,4α,5,6,7-hexahydrocyclopenta[f]indazol-5-yl]ethyl}benzamide] | 59 | 111 | 98 | 9 | 5 to 100 | 68 | – | – | – | – | – |
| C=C(C)CNC(=O)c1c(F)cccc1CC[C@]1(O)CCC2=Cc3c(cnn3-c3ccc(F)cc3)C[C@@]21C [Example 44, 2-fluoro-6-{2-[(4αS,5R)-1-(4-fluorophenyl)-5-hydroxy-4α-methyl-1,4,4α,5,6,7-hexahydrocyclopenta[f]indazol-5-yl]ethyl}-N-(2-methylprop-2-en-1-yl)benzamide] | 24 | 95 | 119 | 43 | 5 to 100 | 67 | – | – | – | – | – |
| C[C@H](CNC(=O)c1ccccc1CC[C@]1(O)CCC2=Cc3c(cnn3-c3ccc(F)cc3)C[C@@]21C)C(F)(F)F [Example 45, 2-{2-[(4αS,5R)-1-(4-fluorophenyl)-5-hydroxy-4α-methyl-1,4,4α,5,6,7-hexahydrocyclopenta[f]indazol-5-yl]ethyl}-N-[(2R)-3,3,3-trifluoro-2-methylpropyl]benzamide] | 18 | 183 | 220 | 52 | 5 to 100 | 70 | – | – | – | – | – |
| C[C@]12Cc3cnn(-c4ccc(F)cc4)c3C=C1CC[C@@]2(O)CCc1ccc(F)cc1 [Example 46 WO 2004/075840 A2, reference compound] | – | – | – | – | – | – | 26 | 571 | 596 | 44 | 71 |
| C[C@]12Cc3cnn(-c4ccc(F)cc4)c3C=C1CC[C@@]2(O)CCc1ccccc1C(=O)N1CCCCC1 [Example 46, (4αS,5R)-1-(4-fluorophenyl)-4α-methyl-5-{2-[2-(piperidin-1-ylcarbonyl)phenyl]ethyl}-1,4,4α,5,6,7-hexahydrocyclopenta[f]indazol-5-ol] | 54 | 176 | 248 | 17 | 5 to 100 | 70 | – | – | – | – | – |
| C[C@]12Cc3cnn(-c4ccc(F)cc4)c3C=C1CC[C@@]2(O)CCc1ccccc1C(=O)N1CCCC1 [Example 47, (4αS,5R)-1-(4-fluorophenyl)-4α-methyl-5-{2-[2-(pyrrolidin-1-ylcarbonyl)phenyl]ethyl}-1,4,4α,5,6,7-hexahydrocyclopenta[f]indazol-5-ol] | 59 | 196 | 205 | 12 | 5 to 100 | 71 | – | – | – | – | – |
| CC(C)[C@@H](C)NC(=O)c1c(F)cccc1CC[C@]1(O)CCC2=Cc3c(cnn3-c3ccc(F)cc3)C[C@@]21C [Example 48, N-[(1R)-1,2-dimethylpropyl]-2-fluoro-6-{2-[(4αS,5R)-1-(4-fluorophenyl)-5-hydroxy-4α-methyl-1,4,4α,5,6,7-hexahydrocyclopenta[f]indazol-5-yl]ethyl}benzamide] | 13 | 94 | 198 | 59 | 5 to 100 | 72 | – | – | – | – | – |
